Structures can show the parent of a compound that is named as a salt.

A word on the IC50: it is the concentration needed to halve the response being measured. A higher IC50 goes with lower potency.

Chain of Steroidogenic factor 1 (Q13285 whole entry, the tested form may be a part): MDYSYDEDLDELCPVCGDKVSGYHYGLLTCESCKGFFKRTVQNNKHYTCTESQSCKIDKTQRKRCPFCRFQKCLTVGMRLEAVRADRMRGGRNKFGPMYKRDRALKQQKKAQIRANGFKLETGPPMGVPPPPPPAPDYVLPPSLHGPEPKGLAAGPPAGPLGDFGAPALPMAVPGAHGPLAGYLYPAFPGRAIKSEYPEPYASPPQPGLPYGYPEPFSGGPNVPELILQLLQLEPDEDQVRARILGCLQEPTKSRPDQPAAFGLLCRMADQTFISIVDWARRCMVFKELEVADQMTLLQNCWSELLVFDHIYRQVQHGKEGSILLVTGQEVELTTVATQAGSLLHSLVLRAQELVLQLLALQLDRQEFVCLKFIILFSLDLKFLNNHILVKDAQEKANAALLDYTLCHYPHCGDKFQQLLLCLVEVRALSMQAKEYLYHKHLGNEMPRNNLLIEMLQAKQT

One assay addresses Steroidogenic factor 1 (Homo sapiens, UniProt Q13285). Kind of assay: SF-1 inhibitor potency, dose response, cell-based, CHO-K1, Gal4-SF-1 LBD, luciferase luminescence (AID 600).
Conditions: not given
`COc1ccc(/N=c2\scc(-c3ccc(S(=O)(=O)N4CCOCC4)cc3)n2CCCO)cc1` [3-[(2Z)-2-[(4-methoxyphenyl)imino]-4-[4-(morpholin-4-ylsulfonyl)phenyl]-1,3-thiazol-3(2H)-yl]propan-1-ol] returned an IC50 of 21.9 µM.
On to `Cc1cc(C(=O)Nc2cccc(C(=O)O)c2)oc1C` [3-[(4,5-dimethyl-2-furoyl)amino]benzoic acid], for which 3.13 µM corresponded to half-maximal inhibition (IC50).
The compound `CCOc1ccc(OCc2cccc(C(=O)O)c2)cc1` [3-[(4-ethoxyphenoxy)methyl]benzoic acid] had a half-inhibitory concentration (IC50) of 0.511 µM.
The same measure, in the same setting: for `COc1ccc(OCc2cccc(C(=O)O)c2)cc1` [3-[(4-methoxyphenoxy)methyl]benzoic acid] the value was 0.421 µM; for `O=C(c1ccc(Cl)cc1)N1CCCCC(Sc2nnc(-c3ccc4c(c3)OCO4)o2)C1=O` (stereo unspecified) [3-[[5-(1,3-benzodioxol-5-yl)-1,3,4-oxadiazol-2-yl]sulfanyl]-1-(4-chlorobenzoyl)azepan-2-one], 1.07 µM; for `Cc1ccsc1C(=O)OCC(=O)c1cc(C)n(CC2CCCO2)c1C` (stereo unspecified) [3-methyl-2-thiophenecarboxylic acid [2-[2,5-dimethyl-1-(2-oxolanylmethyl)-3-pyrrolyl]-2-oxoethyl] ester], > 0.0453 µM.
With `Clc1ccc(-n2ncc3c(N4CCCCCC4)ncnc32)cc1` [4-(1-azepanyl)-1-(4-chlorophenyl)pyrazolo[3,4-d]pyrimidine], the concentration for half-maximal inhibition (IC50) was 3.19 µM.
Same read-out and setting: for `Cc1ccnc(NC(=O)CCCOc2cc(=O)n(C)c3ccccc23)c1` [4-(1-methyl-2-oxidanylidene-quinolin-4-yl)oxy-N-(4-methylpyridin-2-yl)butanamide] the value was 6.17 µM; for `O=C(Nc1nc(-c2ccccn2)cs1)c1ccc(S(=O)(=O)N2CCCCC2)cc1` [4-(1-piperidinylsulfonyl)-N-[4-(2-pyridinyl)-2-thiazolyl]benzamide], 9.93 µM.
Regarding `COc1cccc(-c2nnc(NC(=O)c3ccc(S(=O)(=O)N4CC(C)OC(C)C4)cc3)o2)c1` (stereo unspecified) [4-(2,6-dimethylmorpholin-4-yl)sulfonyl-N-[5-(3-methoxyphenyl)-1,3,4-oxadiazol-2-yl]benzamide], the half-maximal inhibitory concentration (IC50) is > 3.67 µM.
Turning to `CC1CCCN(c2ncnc3c2cnn3-c2ccccc2)C1` (stereo unspecified) [4-(3-methyl-1-piperidinyl)-1-phenylpyrazolo[3,4-d]pyrimidine], the IC50 is 6.8 µM.
With `c1ccc(-n2nnc3c(N4CCOCC4)ncnc32)cc1` [4-(3-phenyl-7-triazolo[4,5-d]pyrimidinyl)morpholine], the 50% inhibitory concentration (IC50) was > 99 µM.
Take `c1ccc(N2CCN(c3nc(-c4ccccn4)nc4ccccc34)CC2)cc1` [4-(4-phenyl-1-piperazinyl)-2-(2-pyridinyl)quinazoline]: half-maximal inhibition (IC50) was put at 5.65 µM.
Still for that read-out and setting: next, `CCc1ccc2oc(-c3ccc(N)cc3)nc2c1` [4-(5-ethyl-1,3-benzoxazol-2-yl)aniline]: > 3.67 µM; `CCOc1ccc(-c2cc(CCCC(=O)NCCc3ccc(OC)c(OC)c3OC)no2)cc1` [4-(5-p-phenetylisoxazol-3-yl)-N-[2-(2,3,4-trimethoxyphenyl)ethyl]butyramide]: 7.53 µM.
For the compound `CCOC(=O)c1cnc(-n2nc(C)cc2C)nc1NC1CCCCC1` [4-(cyclohexylamino)-2-(3,5-dimethyl-1-pyrazolyl)-5-pyrimidinecarboxylic acid ethyl ester], the IC50 worked out at 5.67 µM.
For the compound `CSCc1nnc(NC(=O)c2ccc(S(=O)(=O)N(CC(C)C)CC(C)C)cc2)o1` [4-(diisobutylsulfamoyl)-N-[5-[(methylthio)methyl]-1,3,4-oxadiazol-2-yl]benzamide], the IC50 is > 11 µM.
The same measure, in the same setting: for `CC1CCCCC1NS(=O)(=O)c1ccc(S(=O)(=O)NCc2ccncc2)cc1` (stereo unspecified) [4-N-(2-methylcyclohexyl)-1-N-(pyridin-4-ylmethyl)benzene-1,4-disulfonamide] the value was > 33 µM; for `Cc1cccc(-n2ncc3c(N4CCOCC4)ncnc32)c1` [4-[1-(3-methylphenyl)-4-pyrazolo[3,4-d]pyrimidinyl]morpholine], 4.02 µM; for `CCOC(=O)N1CCN(C(=O)C2CCN(c3ncnc4c3sc3cccc(F)c34)CC2)CC1` [4-[1-(9-fluorobenzothiopheno[3,2-d]pyrimidin-4-yl)isonipecotoyl]piperazine-1-carboxylic acid ethyl ester], 7.93 µM.
Regarding `COC(=O)c1ccc(-n2c(O)cc(N3CCC(n4c(=O)[nH]c5ccccc54)CC3)c2O)cc1` [4-[2,5-dioxo-3-[4-(2-oxo-3H-benzimidazol-1-yl)-1-piperidinyl]-1-pyrrolidinyl]benzoic acid methyl ester], the IC50 is > 99 µM.
Regarding `COc1ccc(OC)c(Nc2nc(-c3ccc(O)c(O)c3)cs2)c1` [4-[2-(2,5-Dimethoxy-phenylamino)-thiazol-4-yl]-benzene-1,2-diol], the IC50 is > 3.67 µM.
`COC(=O)c1ccc(Oc2cc(C)nc(-n3nc(C)cc3C)n2)cc1` [4-[2-(3,5-dimethylpyrazol-1-yl)-6-methyl-pyrimidin-4-yl]oxybenzoic acid methyl ester] had a half-inhibitory concentration (IC50) of 8.58 µM.
The same measure, in the same setting: for `COc1ccccc1-c1nnc2sc(-c3ccc(N(C)C)cc3)nn12` [4-[3-(2-methoxyphenyl)-[1,2,4]triazolo[3,4-b][1,3,4]thiadiazol-6-yl]-N,N-dimethyl-aniline] the value was 6.26 µM.
For the compound `O=C(Oc1ccc(-c2nc(-c3ccccn3)no2)cc1)c1ccccc1` [4-[3-(2-pyridinyl)-1,2,4-oxadiazol-5-yl]phenyl benzoate], the IC50 was found to be 6.83 µM.
On the same count and under the same terms, for `COc1ccc(-c2noc(CCCC(=O)NCCc3ccccc3)n2)cc1OC` [4-[3-(3,4-dimethoxyphenyl)-1,2,4-oxadiazol-5-yl]-N-(2-phenylethyl)butanamide] the value was 4.15 µM; for `COc1ccc(-c2noc(CCCC(=O)O)n2)cc1` [4-[3-(4-methoxyphenyl)-1,2,4-oxadiazol-5-yl]butanoic acid], 0.625 µM.
Compound `Fc1ccc2[nH]c3c(N4CCN(Cc5ccc6c(c5)OCO6)CC4)ncnc3c2c1` [4-[4-(1,3-benzodioxol-5-ylmethyl)-1-piperazinyl]-8-fluoro-5H-pyrimido[5,4-b]indole] showed a 50% inhibitory concentration (IC50) of 7.8 µM.
Same read-out and setting: for `Clc1ccc(OCCN2CCN(c3ncnc4sccc34)CC2)cc1` [4-[4-[2-(4-chloranylphenoxy)ethyl]piperazin-1-yl]thieno[2,3-d]pyrimidine] the value was 3.44 µM.
`Cn1nc(CC(=O)Nc2ccc(N3CCN(C(=O)OC(C)(C)C)CC3)cc2)c2ccccc2c1=O` [4-[4-[[2-(3-methyl-4-oxo-1-phthalazinyl)-1-oxoethyl]amino]phenyl]-1-piperazinecarboxylic acid tert-butyl ester]: the IC50 stood at 2.55 µM.
Compound `CCOc1ccc(-c2cc(CCCC(=O)NCCCOC)no2)cc1` [4-[5-(4-ethoxyphenyl)-1,2-oxazol-3-yl]-N-(3-methoxypropyl)butanamide] came in with an IC50 of 4.46 µM.
With `COc1cc(CN2CCN(c3cc(C)ccc3C)CC2)ccc1O` [4-[[4-(2,5-dimethylphenyl)-1-piperazinyl]methyl]-2-methoxyphenol], it took 4.07 µM to reach half-maximal inhibition (IC50).
Same read-out and setting: next, `COc1cc(CN=O)ccc1OCc1ccc(C(=O)O)cc1` [4-[[4-(hydroximinomethyl)-2-methoxy-phenoxy]methyl]benzoic acid]: 1.16 µM; `CCN(CC)c1ccc2cc(NC(=O)CCC(=O)O)c(=O)oc2c1` [4-[[7-(diethylamino)-2-keto-chromen-3-yl]amino]-4-keto-butyric acid]: 5.11 µM.
On the same count and under the same terms, for `CN(CC1CCCO1)S(=O)(=O)c1ccc(C(=O)Nc2nc(-c3ccccn3)cs2)cc1` (stereo unspecified) [4-[methyl(2-oxolanylmethyl)sulfamoyl]-N-[4-(2-pyridinyl)-2-thiazolyl]benzamide] the value was > 3.67 µM.
`CC(=O)c1c(C)[nH]c(C(=O)OCCCCN2C(=O)c3ccccc3C2=O)c1C` [4-acetyl-3,5-dimethyl-1H-pyrrole-2-carboxylic acid 4-(1,3-dioxo-2-isoindolyl)butyl ester] showed an IC50 of 2.6 µM.
The compound `Nc1nonc1C(=O)NCCNCc1cc(Br)ccc1OCc1ccc(F)cc1` [4-amino-N-[2-[[5-bromo-2-(4-fluorobenzyl)oxy-benzyl]amino]ethyl]furazan-3-carboxamide;hydrochloride] yielded a concentration for half-maximal inhibition (IC50) of 4.46 µM.

Staying with this assay, now noted: inactive by the depositor's call.
`CC1CCCCN1S(=O)(=O)c1ccc(C(=O)Nc2nnc(-c3cccs3)o2)cc1` (stereo unspecified) [4-(2-methylpiperidin-1-yl)sulfonyl-N-(5-thiophen-2-yl-1,3,4-oxadiazol-2-yl)benzamide] gave a 50% inhibitory concentration (IC50) of 17.7 µM.
Same read-out and setting: for `COc1ccc(-c2nnc(NC(=O)c3ccc(S(=O)(=O)N4COCC4(C)C)cc3)o2)cc1` [4-(4,4-dimethyloxazolidin-3-yl)sulfonyl-N-[5-(4-methoxyphenyl)-1,3,4-oxadiazol-2-yl]benzamide] the value was 13.5 µM; for `Cc1ccc2[nH]c3c(N4CCCCCC4)ncnc3c2c1` [4-(azepan-1-yl)-8-methyl-5H-pyrimido[5,4-b]indole], 10.9 µM; for `CCCCN(CCCC)S(=O)(=O)c1ccc(C(=O)Nc2nnc(CSC)o2)cc1` [4-(dibutylsulfamoyl)-N-[5-(methylsulfanylmethyl)-1,3,4-oxadiazol-2-yl]benzamide], 16.5 µM.
Regarding `CCN(C1CCCCC1)S(=O)(=O)c1ccc(S(=O)(=O)NCc2ccncc2)cc1` [4-N-cyclohexyl-4-N-ethyl-1-N-(pyridin-4-ylmethyl)benzene-1,4-disulfonamide], the half-inhibitory concentration (IC50) worked out at 19.5 µM.
With `COc1ccc2c(c1)[nH]c1c(N3CCN(Cc4ccc5c(c4)OCO5)CC3)ncnc12` [4-[4-(1,3-benzodioxol-5-ylmethyl)piperazin-1-yl]-7-methoxy-5H-pyrimido[5,4-b]indole], the half-maximal inhibitory concentration (IC50) stood at 13.2 µM.
`COc1cccc(N2CCN(c3ncnc4c3[nH]c3ccccc34)CC2C)c1` (stereo unspecified) [4-[4-(3-methoxyphenyl)-3-methyl-1-piperazinyl]-5H-pyrimido[5,4-b]indole] came in with an IC50 of 28.6 µM.
`Oc1ccc(N2CCN(c3ncnc4sc5c(c34)CCC5)CC2)cc1` [4-[4-(7,8-dihydro-6H-cyclopenta[4,5]thieno[1,2-c]pyrimidin-1-yl)-1-piperazinyl]phenol] showed a concentration for half-maximal inhibition (IC50) of 13.7 µM.
`CCOC(=O)N1CCC(NC(=O)C2CCCN(Cc3nc(-c4cccc(Cl)c4)oc3C)C2)CC1` (stereo unspecified) [4-[[1-[[2-(3-chlorophenyl)-5-methyl-oxazol-4-yl]methyl]nipecotoyl]amino]piperidine-1-carboxylic acid ethyl ester]: the half-inhibitory concentration (IC50) worked out at 11.3 µM.

Values taken from BindingDB's records for doi:10.7270/Q2319T8T (The Scripps Research Institute Molecular Screening Center, 2007).
